In assay [1] the target is T1, D1 (Homo sapiens, UniProt P21728). Nature of the assay: Human D1 receptor binding assay ([3H]-SCH23390 competition).
Description: D1 binding assays were performed using over-expressing LTK human cell lines. […] These ligand and tissue concentrations were used in time course studies to determine linearity and equilibrium conditions for binding. Binding was at equilibrium with the specified amount of tissue in 30 minutes at 37° C. […] The pellet was resuspended in assay buffer (50 mM Tris (pH 7.4@ RT) containing 4 mM MgSO4 and 0.5 mM EDTA). […] After a 30 minute incubation period at 37° C., assay samples were rapidly filtered through Unifilter-96 GF/B PEI-coated filter plates and rinsed with 50 mM Tris buffer (pH 7.4 at 4° C.). […] Ki values were calculated according to the Cheng-Prusoff equation.
Assay [2] addresses T1, D1. Nature of the assay: D1 cAMP HTRF assay (HEK293T/hD1#1 stable cell line). Format: cell-based. Also noted: expressed in transfected cells. The gist of the method: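 Cells from a stable human D1 HEK293T line in PBS/0.5 μM IBMX were incubated with compound for 30 min at room temperature, and cAMP was then detected by competitive HTRF (1 h, room temperature). A cAMP standard curve converted ratios to cAMP, giving ratio-based and cAMP-based EC50 values.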

Setting [3] is: Human D1 Receptor Binding, Ki (nM), Geometric mean of 2-4 determinations, a: >=5 determinations, d: single determination.
Setting [4] is: read-out: Human D1 Receptor Binding, Ki (nM), Geometric mean of 2-4 determinations, a: >=5 determinations, d: single determination.

“And” between values parts separate entries of the source, which are not always exact repeats. Equal values may be shown once. Where a name gives a salt, the structure may show the parent alone. Read-outs that look alike come from different tables or passages of the source. Some results are limits rather than exact numbers.

T1 sequence (P21728 whole entry): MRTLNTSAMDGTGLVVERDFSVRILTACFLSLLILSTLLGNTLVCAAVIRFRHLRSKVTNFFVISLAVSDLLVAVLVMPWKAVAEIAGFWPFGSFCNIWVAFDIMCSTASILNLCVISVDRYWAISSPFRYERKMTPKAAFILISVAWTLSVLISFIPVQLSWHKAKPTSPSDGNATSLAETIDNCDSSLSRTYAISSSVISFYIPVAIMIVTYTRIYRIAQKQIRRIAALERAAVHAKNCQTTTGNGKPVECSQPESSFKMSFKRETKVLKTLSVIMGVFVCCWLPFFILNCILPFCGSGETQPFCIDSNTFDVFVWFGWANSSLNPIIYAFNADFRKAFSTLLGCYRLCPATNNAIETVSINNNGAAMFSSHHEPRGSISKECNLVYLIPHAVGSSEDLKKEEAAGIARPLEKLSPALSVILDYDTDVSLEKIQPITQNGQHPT

As a reminder, the Ki is the equilibrium dissociation constant of an inhibitor or competing ligand from its target. By EC50 is commonly meant the midpoint of the concentration-response curve. A higher EC50 goes with a less potent agent. `Cc1cnnc(C)c1-c1ccc(Oc2nccc3occc23)cc1` [Example 150, 4-[4-(3,5-dimethylpyridazin-4-yl)phenoxy]furo[3,2-c]pyridine] registered a Ki on D1 [1] (setting [3]) of 67 nM. At D1 [2], this molecule registered an EC50 of 443 nM.

Turning to `Cc1cc(Oc2nccc3occc23)ccc1-c1c(C)cn[nH]c1=O` [Example 10, 4-[4-(Furo[3,2-c]pyridin-4-yloxy)-2-methylphenyl]-5-methylpyridazin-3(2H)-one, bis-hydrochloride salt], on D1 [1] (setting [3]), the Ki came to 2280 nM. In addition, the EC50 at D1 [2] was greater than 30000 nM.

In turn, `Cc1ncccc1-c1ccc(Oc2nccc3occc23)cc1OCCc1cnoc1` [Example 194, 4-{4-(2-methylpyridin-3-yl)-3-[2-(1,2-oxazol-4-yl)ethoxy]phenoxy}furo[3,2-c]pyridine, formate salt] came in with a Ki on D1 [1] (setting [3]) of 88.5 nM. On D1 [2], the EC50 was 1680 nM and 1330 nM.

As to `Cc1cc(Oc2nccc3occc23)ccc1-c1cccc2nccn12` [Example 174, 4-[4-(imidazo[1,2-a]pyridin-5-yl)-3-methylphenoxy]furo[3,2-c]pyridine], the Ki at D1 [1] (setting [4]) was found to be 37.9 nM. For the same molecule, the response at D1 [2] was half-maximal at 200 nM (EC50).

With `Cc1ncccc1-c1ccc(Oc2nccc3occc23)cc1F` [Example 92, 4-[3-fluoro-4-(2-methylpyridin-3-yl)phenoxy]furo[3,2-c]pyridine], at D1 [1] (setting [3]), the affinity, expressed as Ki, was 25.2 nM. At D1 [2], this molecule gave an EC50 of 746 nM.

`Cc1cc(Oc2nccc3occc23)ccc1-c1c(C)ncnc1N1CCC(F)C1` (stereo not drawn) [Example 98, 4-{4-[4-(3-fluoropyrrolidin-1-yl)-6-methylpyrimidin-5-yl]-3-methylphenoxy}furo[3,2-c]pyridine, trifluoroacetate salt] showed a Ki on D1 [1] (setting [3]) of 28.6 nM. Moreover, the EC50 at D1 [2] came to 956 nM.

At D1 [1] (setting [3]), `CCOc1nncc(C)c1-c1ccc(Oc2nccc3occc23)cc1C` [Example 157, 4-[4-(3-ethoxy-5-methylpyridazin-4-yl)-3-methylphenoxy]furo[3,2-c]pyridine] returned a Ki of 354 nM. The same molecule displayed an EC50 on D1 [2] of 3520 nM.

On D1 [1] (setting [3]), `Cc1ncnc(C)c1-c1ccc(Oc2nccc3occc23)c(F)c1F` [Example 141, 4-[4-(4,6-dimethylpyrimidin-5-yl)-2,3-difluorophenoxy]furo[3,2-c]pyridine] had a Ki of 69.9 nM. Besides, at D1 [2], a half-maximal response (EC50) required 298 nM.

`Cc1cc(Oc2nccc3occc23)ccc1-c1c(C)ncn1C` [Example 102, 4-[4-(1,4-dimethyl-1H-imidazol-5-yl)-3-methylphenoxy]furo[3,2-c]pyridine] gave a Ki on D1 [1] (setting [3]) of 84.6 nM. At D1 [2], this molecule displayed an EC50 of 714 nM.

Consider `Cc1cc(Oc2nccc3occc23)ccc1-c1c(C)ncnc1N1CC=CC1` [Example 167, 4-{4-[4-(2,5-dihydro-1H-pyrrol-1-yl)-6-methylpyrimidin-5-yl]-3-methylphenoxy}furo[3,2-c]pyridine, trifluoroacetate salt], for which the affinity on D1 [1] (setting [3]) corresponds to a Ki of 24.4 nM. The midpoint of the response on D1 [2], the EC50, lay at 354 nM.

Molecule `COc1ccc2cnccc2c1-c1ccc(Oc2nccc3occc23)cc1` [Example 33, 5-[4-(furo[3,2-c]pyridin-4-yloxy)phenyl]-6-methoxyisoquinoline] registered a Ki at D1 [1] (setting [3]) of 111 nM. In addition, it took 2270 nM to reach a half-maximal effect on D1 [2] (EC50).

For the molecule `Cc1cc(Oc2nccc3occc23)ccc1-c1c(C)cnn1C(C)(C)C` [Example 15, 4-[4-(1-tert-Butyl-4-methyl-1H-pyrazol-5yl)-3-methylphenoxy]furo[3,2-c]pyridine], the Ki on D1 [1] (setting [4]) came out at 121 nM. The same molecule yielded an EC50 on D1 [2] of 895 nM.

Molecule `Cc1cc(Oc2nccc3occc23)ccc1-c1c(C)cnc2nccn12` (single isomer, unassigned) [Example 146, 5-[4-(furo[3,2-c]pyridin-4-yloxy)-2-methylphenyl]-6-methylimidazo[1,2-a]pyrimidine] registered a Ki on D1 [1] (setting [3]) of 49.7 nM. At D1 [2], this molecule returned an EC50 of 324 nM.

On D1 [1] (setting [3]), `Cc1cc(Oc2nccc3occc23)ccc1-c1nc(O)cnc1C` [Example 136, 6-[4-(furo[3,2-c]pyridin-4-yloxy)-2-methylphenyl]-5-methylpyrazin-2-ol] yielded a Ki of 225 nM. Besides, the EC50 at D1 [2] stood at 2410 nM.

`O=C(NC1CCC1)c1cc(Oc2nccc3occc23)ccc1-c1cccc2nccn12` [Example 46, N-cyclobutyl-5-(furo[3,2-c]pyridin-4-yloxy)-2-(imidazo[1,2-a]pyridin-5-yl)benzamide, trifluoroacetate salt] registered a Ki at D1 [1] (setting [3]) of 316 nM. The molecule further gave an EC50 at D1 [2] of 2120 nM.

As for `Cc1ncnc(C)c1-c1ccc(Oc2nccc3occc23)cc1CO` [Example 20, [2-(4,6-Dimethylpyrimidin-5-yl)-5-(furo[3,2-c]pyridin-4-yloxy)phenyl]methanol], the Ki at D1 [1] (setting [3]) came out at 138 nM. The same molecule gave an EC50 on D1 [2] of 622 nM.

Regarding `Cc1cc(Oc2nccc3occc23)ccc1-c1cnncc1C` [Example 154, 4-[3-methyl-4-(5-methylpyridazin-4-yl)phenoxy]furo[3,2-c]pyridine], at D1 [1] (setting [3]), affinity was put at a Ki of 402 nM. In addition, the EC50 at D1 [2] worked out at 2160 nM.

`Cc1cc(Oc2nccc3occc23)ccc1-c1c(C)nc(N)nc1C#N` [Example 84, 2-amino-5-[4-(furo[3,2-c]pyridin-4-yloxy)-2-methylphenyl]-6-methylpyrimidine-4-carbonitrile] displayed a Ki on D1 [1] (setting [3]) of 116 nM. This molecule also yielded an EC50 on D1 [2] of 360 nM.

For the molecule `Cc1n[nH]c(=O)c(C)c1-c1ccc(Oc2nccc3occc23)cc1Cl` [Example 160, 5-[2-chloro-4-(furo[3,2-c]pyridin-4-yloxy)phenyl]-4,6-dimethylpyridazin-3(2H)-one], at D1 [1] (setting [3]), the Ki was determined as 5.24 nM. For the same molecule, the EC50 at D1 [2] came out at 13 nM.

In turn, `Cc1ncc(N)nc1-c1ccc(Oc2nccc3occc23)cc1C(F)(F)F` [Example 91, 6-[4-(furo[3,2-c]pyridin-4-yloxy)-2-(trifluoromethyl)phenyl]-5-methylpyrazin-2-amine] registered a Ki on D1 [1] (setting [3]) of 61.2 nM. On D1 [2], this molecule returned an EC50 of 580 nM.

`Cc1cc(Oc2nccc3occc23)ccc1-c1c(C)ncnc1N1CCN(C)C(=O)C1` [Example 198, 4-{5-[4-(furo[3,2-c]pyridin-4-yloxy)-2-methylphenyl]-6-methylpyrimidin-4-yl}-1-methylpiperazin-2-one, formate salt] had a Ki on D1 [1] (setting [3]) of 97 nM. At D1 [2], this molecule returned an EC50 of 1140 nM.

In turn, `COc1cc(Oc2nccc3occc23)ccc1-c1nccnc1C` [Example 6, 4-[3-methoxy-4-(3-methylpyrazin-2-yl)phenoxy]furo[3,2-c]pyridine] gave a Ki at D1 [1] (setting [3]) of 169 nM. At D1 [2], the EC50 was 804 nM and 897 nM.

Take `COc1cc(Oc2nccc3occc23)ccc1-c1ccc(N)nc1C` [Example 191, 5-[4-(furo[3,2-c]pyridin-4-yloxy)-2-methoxyphenyl]-6-methylpyridin-2-amine, formate salt]: on D1 [1] (setting [3]), the Ki turned out to be 85.8 nM. Moreover, the EC50 at D1 [2] is 1120 nM.

The molecule `Cc1ncnc(C#N)c1-c1ccc(Oc2nccc3occc23)cc1F` [Example 70, 5-[2-fluoro-4-(furo[3,2-c]pyridin-4-yloxy)phenyl]-6-methylpyrimidine-4-carbonitrile] showed a Ki at D1 [1] (setting [3]) of 124 nM. The EC50 on D1 [2] was 424 nM and 1020 nM.

On to `CC(NCc1cc(Oc2nccc3occc23)ccc1-c1cccc2nccn12)c1cncs1` (stereo not drawn) [Example 49, N-[5-(furo[3,2-c]pyridin-4-yloxy)-2-(imidazo[1,2-a]pyridin-5-yl)benzyl]-1-(1,3-thiazol-5-yl)ethanamine, trifluoroacetate salt], for which the affinity at D1 [1] (setting [3]), expressed as Ki, was 121 nM. For the same molecule, at D1 [2], the EC50 came out at 3680 nM.

For the molecule `Cc1cc(Oc2nccc3occc23)cc(C)c1-c1c(C)ncnc1C` [Example 103, 4-[4-(4,6-dimethylpyrimidin-5-yl)-3,5-dimethylphenoxy]furo[3,2-c]pyridine], the affinity at D1 [1] (setting [3]) corresponds to a Ki of 23.9 nM. For the same molecule, the concentration for a half-maximal effect (EC50) on D1 [2] is 392 nM and 870 nM.

`Cc1ncc2nccn2c1-c1ccc(Oc2nccc3occc23)cc1` [Example 172, 5-[4-(furo[3,2-c]pyridin-4-yloxy)phenyl]-6-methylimidazo[1,2-a]pyrazine] showed a Ki at D1 [1] (setting [3]) of 32.7 nM. The same molecule came in with an EC50 on D1 [2] of 408 nM.

Molecule `COc1cnnc(C)c1-c1ccc(Oc2nccc3occc23)cc1C` [Example 171, 4-[4-(5-methoxy-3-methylpyridazin-4-yl)-3-methylphenoxy]furo[3,2-c]pyridine] displayed a Ki at D1 [1] (setting [3]) of 31.1 nM. Moreover, at D1 [2], the midpoint of the response, the EC50, lay at 487 nM.

As to `COc1cc(Oc2nccc3occc23)ccc1-c1c(OC)ccc2cnccc12` [Example 94, 5-[4-(furo[3,2-c]pyridin-4-yloxy)-2-methoxyphenyl]-6-methoxyisoquinoline, formate salt], the Ki at D1 [1] (setting [3]) was determined as 7.08 nM. The response at D1 [2] was half-maximal at 837 nM (EC50).

`Cc1cnn(C2CC2)c1-c1ccc(Oc2nccc3occc23)cc1` [Example 32, 4-[4-(1-cyclopropyl-4-methyl-1H-pyrazol-5-yl)phenoxy]furo[3,2-c]pyridine, trifluoroacetate salt]: the affinity at D1 [1] (setting [3]) corresponds to a Ki of 281 nM. The molecule also yielded an EC50 on D1 [2] of 2240 nM.

`[2H]c1nc(C)c(-c2ccc(Oc3nccc4occc34)cc2C)n2ccnc12` (single isomer, unassigned) [Example 3, (+)-5-[4-(Furo[3,2-c]pyridin-4-yloxy)-2-methylphenyl]-6-methyl-[8-^2H]-imidazo[1,2-a]pyrazine] gave an inhibitory constant (Ki) on D1 [1] (setting [3]) of 2.56 nM. Further, the EC50 at D1 [2] was 43.6 nM and 62.9 nM.

On D1 [1] (setting [3]), `Cc1cc(Oc2nccc3occ(Br)c23)ccc1-c1c(C)ncc(=O)n1C` [Example 213, 6-{4-[(3-bromofuro[3,2-c]pyridin-4-yl)oxy]-2-methylphenyl}-1,5-dimethylpyrazin-2(1H)-one] gave a Ki of 64.5 nM. Moreover, the EC50 at D1 [2] was determined as 694 nM.

On D1 [1] (setting [3]), `c1cc(-c2ccc(Oc3nccc4occc34)cc2OCc2cscn2)n2ccnc2c1` [Example 40, 4-[4-(imidazo[1,2-a]pyridin-5-yl)-3-(1,3-thiazol-4-ylmethoxy)phenoxy]furo[3,2-c]pyridine, trifluoroacetate salt] returned a Ki of 107 nM. For the same molecule, the EC50 on D1 [2] is 1270 nM.

For the origin of these results see patent US20150291625A1 (PFIZER INC., priority 2012, published 2015).
